Experimental data from US20250361511A1, “NANOPARTICLE COMPOSITIONS CONTAINING SIRP-alpha siRNA FOR TREATMENT OF CANCER” (The Texas A&M University System, priority 2024, published 2025).

Experiments:
OVCAR3 monospheroids = experiment: Response to carboplatin chemotherapy, MTS viability, monospheroids; format: cell-based
Method: (§1) Spheroid formation on 384-well hanging drop arrays. OvCa monospheroids or OvCa/macrophage heterospheroids were formed on a 384-well hanging drop array following well-established protocols. OvCa monospheroids were initiated with 100 cells in a 20 μL drop of growth medium. To create OvCa/macrophage heterospheroids, the hanging drop platform was first leveraged to differentiate THP-1 monocytes to M0 macrophages by phorbol ester exposure20. Following a 3-day differentiation, macrophages were harvested and mixed with OvCa cells (50:50) to create heterospheroids. Monospheroid or heterospheroid formation was visually confirmed using phase contrast microscopy at day 4.
(§2) Response to chemotherapy. Carboplatin (MedChemExpress, Monmouth Junction, NJ) was dissolved by sonication in sterile PBS at a stock concentration of 5 mg/mL. OVCAR3 monospheroids or OVCAR3/macrophage heterospheroids formed over 4 days were treated with 0-500 μM carboplatin and incubated for 2 days/48 hours. An MTS assay was then used to determine the percent cell viability in carboplatin-treated spheroids compared to untreated controls. IC50 values were calculated with the GraphPad Prism normalized log (inhibitor) variable slope nonlinear fit function.
(§3) siSIRPα LNP immune checkpoint treatment. Mono-or hetero-spheroids were treated with 25 nM siSIRPα LNP on day 2 in hanging drop culture. LNP ability to reduce both macrophage SIRPα expression and OvCa metastatic behavior were evaluated over 4 more days.

[1] = system: OVCAR3/macrophage heterospheroids; experiment: Response to carboplatin chemotherapy, MTS viability, heterospheroids; format: cell-based
Method: as §1, §2, §3

Structure (SMILES): N.N.O=C([O-])C1(C(=O)[O-])CCC1.[Pt+2] [carboplatin]
- IC50 (OVCAR3 monospheroids; OVCAR3 monospheroids, carboplatin 0-500 μM, FIG. 1B): 114 µM
- IC50 (OVCAR3 monospheroids; monospheroids after siSIRPα LNP, FIG. 15A): 272 µM
- IC50 (OVCAR3 monospheroids; monospheroids, control, 0-500 μM for 48 hours, MTS, FIG. 10C/15A): 218 µM
- IC50 ([1]; OVCAR3/THP1 OvCa/MP hetero-spheroids, no LNP, FIG. 1B/6B): 536 µM
- IC50 ([1]; OvCa/MP hetero-spheroids treated with siSIRPα-LNP, FIG. 6B): 213 µM
- IC50 ([1]; heterospheroids with 25 nM siSIRPα LNP treatment, FIG. 14B): 321 ± 54.6 µM
- IC50 ([1]; heterospheroids with negative control (scramble) siRNA LNP, FIG. 15C): 405 µM
- IC50 ([1]; heterospheroids, no treatment, 0-500 μM for 48 hours, MTS, FIG. 10C/14B/15C): 368 µM
